In test [1] the test system is Aspergillus niger. The test can be described thus: Broth two-fold serial dilution MIC test (Table 3), A.n. Type of test: cell-based. As to conditions: dilution series 500 to 4 ppm. An excerpt:
(§1) A minimum inhibitory concentration (MIC) value is obtained using a broth, two-fold serial dilution test performed as follows: A stock solution or dispersion of the test compound, typically at a concentration of 1%, is made in a 5:3:2 solvent solution of acetone, methanol, and water. A volume of the stock solution is dispensed into culture media to give an initial starting test concentration of 500 ppm compound.
(§2) When the test is ready to be done, each vessel in the dilution series, except the first vessel, contains an equal volume of compound free broth. The first vessel contains twice the volume of broth with the starting concentration of test compound. One half of the broth from the first vessel is transferred to the second vessel. After being mixed, one half the resulting volume is removed from the second vessel and transferred to the third vessel. The entire cycle is repeated sufficiently to give a series of concentrations amounting to 500, 250, 125, 63, 31, 16, 8, and 4 ppm, respectively.
(§3) Each vessel is then inoculated with a cell suspension of the appropriate test organism. Bacteria are grown in broth and fungi on agar slants for a time and at a temperature appropriate to the species being tested. At the end of the growth period, the broth is vortexed to disperse the cells. In the case of fungi, the spores are harvested by pipetting water onto the slant and dislodging the spores with a sterile loop. The cell/spore suspension is standardized by controlling incubation time, temperature, and the volume of the diluent. The suspension is then used to inoculate the vessels containing the broth compound. The vessels are then incubated at the appropriate temperature. After the incubation, the vessels are examined for growth/no growth. The minimum inhibitory concentration (MIC) is defined as the lowest concentration of compound that results in complete inhibition of growth of the test organism.

For test [2], the system named is Aureobasidium pullulans. In words: Broth two-fold serial dilution MIC test (Table 3), A.p. Type of test: cell-based. Particulars: dilution series 500 to 4 ppm.
Source text: as §1, §2, §3
Aureobasidium pullulans (A.p)

For test [3], the system named is Escherichia coli. In words: Broth two-fold serial dilution MIC test (Table 3), E.c. Type of test: cell-based. As to conditions: gram negative, dilution series 500 to 4 ppm.
Source text: as §1, §2, §3
Escherichia coli (E.c), gram negative

The subject of test [4] is Pseudomonas aerugenosa. In words: Broth two-fold serial dilution MIC test (Table 3), Ps.ae. The class given is cell-based. As to conditions: gram negative, dilution series 500 to 4 ppm.
Source text: as §1, §2, §3
Pseudomonas aerugenosa (Ps.ae), gram negative

For test [5], the system named is Pseudomonas fluorescens. In words: Broth two-fold serial dilution MIC test (Table 3), Ps.fl. Type of test: cell-based. Particulars: gram negative, dilution series 500 to 4 ppm.
Source text: as §1, §2, §3
Pseudomonas fluorescens (Ps.fl), gram negative

Test [6] relates to Staphylococcus aureus. The test can be described thus: Broth two-fold serial dilution MIC test (Table 3), S.a. The class given is cell-based. As to conditions: gram positive, dilution series 500 to 4 ppm.
Source text: as §1, §2, §3
Staphylococcus aureus (S.a), gram positive

Test [7] has as its system Piricularia oryzae. The test can be described thus: whole plant or invertebrate. Type of test: in vivo. Particulars: for pest or weed control at 100 ppm: read-out: % Control RB, application rate 100 ppm; for pest or weed control at 200 ppm: read-out: % Control RB, application rate 200 ppm.
Test [8] deals with Pellicularia filamentosa (f. sp. sasiki). In words: whole plant or invertebrate. Type of test: in vivo. As to conditions: 120 h; read-out: % Control RSB.
Test [9] relates to Phytophthora infestans. The test can be described thus: whole plant or invertebrate. The class given is in vivo. As to conditions: for pest or weed control at 100 ppm / pest or weed control at 200 ppm: Phytophthora infestans, in Solanum lycopersicum, 96 h; for pest or weed control at 100 ppm: read-out: % Control TLB; for pest or weed control at 200 ppm: read-out: % Control TLB, application rate 200 ppm.

The subject of test [10] is Puccinia recondita (f. sp. tritici Races PKB and PLD). In words: whole plant or invertebrate. The class given is in vivo.
Test [11] has as its system Erysiphe graminis (f. sp. tritici). In words: whole plant or invertebrate. Type of test: in vivo. As to conditions: for pest or weed control at 100 ppm / pest or weed control at 200 ppm: Blumeria graminis, read-out: % Control WPM.
Test [12] has as its system Pseudoperonospora cubensis. The test can be described thus: whole plant or invertebrate. Type of test: in vivo.
Test [13] has as its system Puccinia graminis (f. sp. tritici Race 15B-2). In words: whole plant or invertebrate. Type of test: in vivo.
In test [14] the test system is Pseudomonas fluorescens. In words: Alternate Minimum Inhibitory Concentrations Test (Table 4), Ps.fl. Particulars: for MIC: Pseudomonas fluorescens, read-out: MIC Ps.fl. Type of test: cell-based. Put shortly: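 MIC taken as lowest concentration showing no growth after 72 h incubation at 30 °C in TSB. Twofold dilution series spanned 250 down to 0.8 ppm, wells inoculated with phosphate-buffer-diluted 24 h culture.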

The test system of test [15] is Pythium ultimum. In words: Pythium ultimum in vitro Fungitoxicity Assay in liquid culture. Type of test: cell-based, Pythium ultimum (ATCC 26083). Particulars: mycelial dry weight, 48 h at 25° C., shaking at 60 rpm. The procedure: Selected compounds of Examples 1-120 were subjected also to the following in vitro fungitoxicity assay against Pythium ultimum in a liquid culture, with the results as indicated in Table 6.
Pythium ultimum Fungitoxicity Assay
A dilution series of the test compound was prepared in dimethylsulfoxide, and 0.1 ml of each dilution was added to 19.9 ml of a liquid asparagine-sucrose medium (D. C. Erwin and K. Katznelson (1971), Can. J. Microbiol. 7, 15) in 9 cm diameter petri dishes to give the desired final concentrations of test compound. Plates were inoculated with mycelial plugs, 7 mm diameter, taken from the growing edge of 48 h old cultures of Pythium ultimum, (ATCC 26083), grown on potato dextrose agar. Two replicate plates were used for each treatment. The increase in mycelial dry weight was determined after growth for 48 h at 25° C. with shaking at 60 rpm. EC50 values were calculated from dose response curves.

[16] abbreviates: Puccinia recondita, 240 h, read-out: % Control WLR.
Where [17] appears, read: Pseudoperonospora cubensis, in Cucumis sativus, 168 h, read-out: % Control CDM.
Setting [18] is: Puccinia graminis, 336 h, read-out: % Control WSR.
[19] abbreviates: Table 4 alternate test, 250 ppm to 0.8 ppm in TSB, 72 hours, 30° C.
Setting [20] is: Globisporangium ultimum, read-out: EC 50.

Structures are written as SMILES. Converted amounts (≈) assume the structure as drawn. Read-outs that look alike come from different tables or passages of the source.

Turning to `CCCCCCCCNC(=O)/C=C\SC(=O)C1=CCCCC1` [Compound 9, N-octyl-cis-3-[(1-cyclohexene)carbonylthio]acrylamide], the MIC in test [1] is greater than 500 µg/mL; in test [2], less than 4 µg/mL; in [3], greater than 500 µg/mL; in test [4] it was greater than 500 µg/mL; in test [5], greater than 500 µg/mL; in test [6] it was greater than 500 µg/mL. Further, the pest or weed control at 100 ppm in test [7] (Pyricularia oryzae) came out at 90%; in test [8] it was 0%; in test [9], 90%; in [10] (setting [16]) it was 0%; in [11] it was 0%.

Take `CCCCCCCCNC(=O)/C=C\SC(=O)CC` [Compound 10, N-octyl-cis-3-(propanoylthio)acrylamide]: the minimum inhibitory concentration (MIC) in [1] is 125 µg/mL (≈ 461 µM); in test [2] it was less than 4 µg/mL; in test [3], greater than 500 µg/mL; in test [4] it was greater than 500 µg/mL; in [5] it was 16 µg/mL (≈ 58.9 µM); in test [6] it was less than 4 µg/mL. Moreover, the pest or weed control at 50 ppm in test [12] (setting [17]) turned out to be 85%. The pest or weed control at 100 ppm in [7] (Pyricularia oryzae) was found to be 80%; in [8] it was 0%; in test [9] it was 90%; in [10] (setting [16]), 50%; in test [11], 0%. Further, in test [13] (setting [18]), the pest or weed control at 200 ppm came out at 90%.

Take `CCCCCCCCNC(=O)/C=C\SC(=O)N(c1ccccc1)c1ccccc1` [Compound 41, N-octyl-cis-3-(diphenylaminocarbonylthio)acrylamide]: the MIC in [1] was greater than 500 µg/mL; in test [2], greater than 500 µg/mL; in test [3] it was greater than 500 µg/mL; in [4], greater than 500 µg/mL; in test [5] it was greater than 500 µg/mL; in test [6] it was no less than 500 µg/mL. In addition, the minimal inhibitory concentration (MIC) in test [14] (setting [19]) is greater than 250 µg/mL. In addition, the pest or weed control at 200 ppm in test [12] (setting [17]), in [7] (Pyricularia oryzae), in [9] and in test [11] was 0% in each case. Also, the pest or weed control at 100 ppm in test [8] is 0%. In addition, the pest or weed control at 25 ppm in [10] (setting [16]) stood at 100%.

As for `CCCCCCCCNC(=O)/C=C\SCC(O)c1ccco1` (stereo not drawn) [Compound 42], the “MIC Ps.fl” value in test [14] (setting [19]) is greater than 250 Ppm. The “% Control CDM” value in [12] (in vivo) is recorded as 50 % Control. Further, the “% Control RB” value in test [7] (in vivo) is 90 % Control. In addition, the “% Control TLB” value in test [9] (application rate 200 ppm) was 0 % Control. Moreover, the “% Control WLR” value in [10] (in vivo) was 0 % Control. The “% Control WPM” value in test [11] (in vivo) was 0 % Control. The “% Control WSR” value in test [13] (application rate 200 ppm) is reported as 50 % Control. The “EC50” value in [15] worked out at 9 ppm.

`CCCCCCCCNC(=O)/C=C\SC[C@H](N)C(=O)O` [Compound 47, N-octyl-cis-3-[(2-amino-2-carboxyethane)thio]acrylamide]: the minimum inhibitory concentration (MIC) in [1], in test [2], in [3], in [4], in test [5] and in [6] was greater than 500 µg/mL in each case. Further, the minimal inhibitory concentration (MIC) in [14] (setting [19]) was greater than 250 µg/mL. In addition, the pest or weed control at 12 ppm in [12] (setting [17]) was found to be 70%. Also, the pest or weed control at 50 ppm is 0% in test [7] (Pyricularia oryzae, read-out: % Control RB, application rate 50 ppm) and 90% in test [13] (setting [18]). Further, in test [9], the pest or weed control at 100 ppm was found to be 90%.

Regarding `CCCCCCCCNC(=O)/C=C\SC(=O)c1nccc2ccccc12` [Compound 73, N-octyl-cis-3-[(1-isoquinoline)carbonylthio]acrylamide], the MIC in test [14] (setting [19]) was greater than 250 µg/mL. In addition, the pest or weed control at 200 ppm in test [7] (Pyricularia oryzae) is 0%; in test [8], 0%; in test [9] it was 0%; in test [10] (setting [16]), 25%; in test [11] it was 0%. In test [15] (setting [20]), the EC50 was found to be 8.4 µg/mL (≈ 22.7 µM).

In the case of `CCCCCCCCNC(=O)/C=C\SC(=O)C1CCc2ccccc2C1` (stereo not drawn) [Compound 74, N-octyl-cis-3-[(1,2,3,4-tetrahydronaphth-2-oyl)thio]acrylamide], the MIC in test [14] (setting [19]) is greater than 250 µg/mL. The pest or weed control at 200 ppm in test [7] (Pyricularia oryzae), in [8], in test [9], in test [10] (setting [16]) and in test [11] was 0% each time. In addition, the EC50 in test [15] (setting [20]) is 5 µg/mL (≈ 13.4 µM).

Consider `CCCCCCCCNC(=O)/C=C\SC(=O)c1ccc2ccccc2n1` [Compound 76, N-octyl-cis-3-[(2-quinoline)carbonylthio]acrylamide], for which the MIC in test [14] (setting [19]) was greater than 250 µg/mL. Further, the pest or weed control at 200 ppm in [7] (Pyricularia oryzae), in test [8], in test [9], in [10] (setting [16]) and in [11] was 0% in each case. For the same compound, in test [15] (setting [20]), the EC50 came to 13.2 µg/mL (≈ 35.6 µM).

As to `CCCCCCCCNC(=O)/C=C\SC(=O)CC(C)c1ccccc1` (stereo not drawn) [Compound 78, N-octyl-cis-3-[(3-phenylbutanoyl)thio]acrylamide], the MIC in test [14] (setting [19]) was greater than 250 µg/mL. Moreover, the pest or weed control at 200 ppm in test [7] (Pyricularia oryzae), in test [8], in test [9], in test [10] (setting [16]) and in [11] was 0% each time. Besides, in test [15] (setting [20]), the EC50 was found to be 23.9 µg/mL (≈ 66.1 µM).

Turning to `CCCCCCCCNC(=O)/C=C\SC(=O)c1ccc(CCCC)cc1` [Compound 115, N-octyl-cis-3-[(4-butylbenzoyl)thio]acrylamide], the MIC is greater than 500 µg/mL in [1]; no less than 250 µg/mL in test [2]; greater than 500 µg/mL in test [3]; greater than 500 µg/mL in test [4]; greater than 500 µg/mL in test [5]; greater than 500 µg/mL in test [6]. For the same compound, the MIC in [14] (72 h) is greater than 250 µg/mL. Further, the pest or weed control at 200 ppm in test [9] worked out at 0%.

In the case of `O=C(/C=C\SC(=O)c1ccccc1)NCCN1CCOCC1` [Compound 116, N-[2-(4-morpholine)ethyl]-cis-3-(benzoylthio)acrylamide], the MIC in test [14] (setting [19]) is greater than 250 µg/mL. Besides, the pest or weed control at 200 ppm in [12] (setting [17]), in [9], in test [10] (setting [16]) and in [11] was 0% throughout. For the same compound, the pest or weed control at 12 ppm in test [7] (Pyricularia oryzae, read-out: % Control RB, application rate 12 ppm) worked out at 50%. Further, in test [15] (setting [20]), the EC50 was found to be 10.3 µg/mL (≈ 32.1 µM).

What is called MIC is the least concentration at which growth counts as inhibited.

The values are drawn from patent US5300672A (priority 1992, dated 1994).
